Our source for the IC50 values is patent publication US20240246954A1, “COMPOSITIONS AND METHODS FOR INHIBITING KRAS” (TheRas, Inc., priority 2021, published 2024).

Assay [1] concerns the target T1, Avi-KRAS G12D (1-169) GppNHp/RAF1 RBD-3×FLAG (52-151) (Homo sapiens, UniProt P01116, G12D).
T1 construct: Avi-KRAS G12D (1-169) GppNHp
Description: HTRF Raf1-KRAS G12D-GppNHp disruption assay. In kind it is biochemical. To be noted: 1 h incubation. In short, it runs like this:
(§1)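 HTRF read-out (320 nm excitation, 615 nm emission) after two 1 h room-temperature incubations, first with protein mix, then detection reagents. Ten-point dilution series starting at 100 μM; results given as % activity relative to DMSO at 100%.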
In general terms: TR-FRET usually uses a lanthanide donor and a delayed reading to cut background.

Assay [2] addresses T2, Avi-KRAS G12D/Q25A (1-169) GppNHp/3×FLAG-PI3KCA (157-299) (Homo sapiens, UniProt P01116, G12D/Q25A).
T2 construct: Avi-KRAS G12D/Q25A (1-169) GppNHp
Description: HTRF PI3KCA-KRAS G12D/Q25A-GppNHp disruption assay. It counts as biochemical. To be noted: 1 h incubation. In outline: as §1

The subject of assay [3] is pERK in GP2d cells (KRAS G12D). Nature of the assay: Cell-based pERK HTRF assay. The conditions noted are these: GP2d, 1 h, 60 min incubation. As for the experimental part: Biological Example 3. Cell-Based pERK HTRF Assay
pERK assay (Perkin Elmer) was used to determine the effectiveness of compounds in disrupting KRAS G12D protein/effector signaling in cells.
On Day 1, cells (GP2d) were seeded into 96-well plates at 3×10^4 cells/well in 80 μl complete growth media (DMEM, 10% FBS).
On Day 2, cells were treated with compounds at 0.25% DMSO. The source plate was created with compounds diluted in media at 5-fold the final assay concentration. The compounds were run in a 9-point concentration curve starting at 1 μM, with a half-log dilution between concentrations. 20 μL was transferred onto the cell plates (final volume in wells was 100 μL). Plates were harvested after 60 min incubation by aspirating media and adding kit-supplied 1× supplemented lysis buffer to all wells (50 μl per well). Plates were then placed on a plate shaker and incubated at 850 rpm for an additional 30 min.
Antibody mixture solution is prepared by diluting aliquoted d2 and Eu Cryptate antibodies 1:20 in kit supplied detection buffer, mix the diluted antibodies solutions (1:1 v:v). Four μL of this solution is then added to a 384-well detection plate (Perkin Elmer; 6008230).
Samples were homogenized by pipetting up and down and then transferred (16 μL of cell lysates) from the 96-well cell culture plate to two wells of the HTRF 384-well detection plate containing the antibody solution. Plates were centrifuged (524 g for 1 min) and allowed to incubate between 4 and 24 h at room temperature. Maximum signal is reached after 4 h incubation time and remains stable over a period of 24 hours. Therefore, readings can be made between 4 and 24 h of incubation. Plates were centrifuged again (524 g for 1 min), then analyzed on the EnVision plate reader using the following settings: Excitation 320 nm, Bandwidth 75 nm; Emission 615 nm, Bandwidth 85 nm; Gain 100%; Flashes 100; Lag 60 μs.

T1 sequence (P01116 1-169 isoform P01116-2 G12D limits assumed): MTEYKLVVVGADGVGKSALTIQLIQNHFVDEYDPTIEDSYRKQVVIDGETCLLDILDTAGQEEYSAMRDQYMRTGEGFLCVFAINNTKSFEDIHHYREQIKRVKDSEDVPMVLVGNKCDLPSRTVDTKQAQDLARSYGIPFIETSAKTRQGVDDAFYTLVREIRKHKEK
T2 sequence (P01116 1-169 isoform P01116-2 G12D/Q25A limits assumed): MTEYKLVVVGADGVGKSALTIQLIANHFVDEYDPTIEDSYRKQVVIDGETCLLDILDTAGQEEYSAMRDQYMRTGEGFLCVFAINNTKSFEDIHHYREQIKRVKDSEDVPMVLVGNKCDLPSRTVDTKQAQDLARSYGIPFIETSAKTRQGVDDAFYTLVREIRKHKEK

As a reminder, the IC50 is the midpoint of a concentration-inhibition curve. Low values mean greater potency, high ones weaker potency. On to `C[C@@H]1CN(c2nc(OC[C@@]34CCCN3C[C@H](F)C4)nc3c(F)c(-c4ccc(F)c5sc(N)c(C#N)c45)c(C(F)(F)F)cc23)[C@@H](C)CN1` [Compound 378], for which the half-inhibitory concentration (IC50) was at most 0.1 µM in assay [1], 0.1 to 1 µM in assay [2] and at most 0.1 µM in assay [3].
With `C[C@@H]1C[C@@H](N(C)c2nc(OC[C@@]34CCCN3C[C@H](F)C4)nc3c(F)c(-c4ccc(F)c5sc(N)c(C#N)c45)ccc23)CN1` [Compound 357], the IC50 in assay [1] was 1 to 10 µM; in assay [2], 1 to 10 µM; in assay [3], 0.1 to 1 µM.
For the molecule `C[C@@H]1CN(c2nc(OC[C@@]34CCCN3C[C@H](F)C4)nc3c(F)c(-c4ccc(F)c5sc(N)nc45)c(C(F)(F)F)cc23)[C@@H](C)CN1` [Compound 207], the concentration for half-maximal inhibition (IC50) in assay [1] is 0.1 to 1 µM; in assay [2] it was 1 to 10 µM; in assay [3], at most 0.1 µM.
On to `Nc1nc2c(-c3c(C(F)(F)F)cc4c(N5CCC6(CCNC6)C5)nc(OCC56CCCN5CCC6)nc4c3F)ccc(F)c2s1` (stereo not drawn) [Compound 327], for which the IC50 in assay [1] is 0.1 to 1 µM; in assay [2] it was 1 to 10 µM; in assay [3], over 1 µM.
`Nc1nc2c(-c3c(C(F)F)cc4c(N5C[C@H]6CC[C@@H](C5)N6)nc(OC[C@@]56CCCN5C[C@H](F)C6)nc4c3F)ccc(F)c2s1` [Compound 370, 4-(4-((1R,5S)-3,8-diazabicyclo[3.2.1]octan-3-yl)-6-(difluoromethyl)-8-fluoro-2-(((2R,7aS)-2-fluorotetrahydro-1H-pyrrolizin-7a(5H)-yl)methoxy)quinazolin-7-yl)-7-fluorobenzo[d]thiazol-2-amine]: the IC50 is 0.1 to 1 µM in assay [1], 0.1 to 1 µM in assay [2] and at most 0.1 µM in assay [3].
Take `N#Cc1c(-c2ccc(F)c3sc(N)c(C#N)c23)c(Cl)cc2c(N3CC4CCC(C3)N4)nc(OC[C@@]34CCCN3C[C@H](F)C4)nc12` [Compound 371]: the IC50 in assay [1] was 0.1 to 1 µM; in assay [2], 0.1 to 1 µM; in assay [3], at most 0.1 µM.
In the case of `CN1C[C@H](F)C[C@H]1COc1nc(N2C[C@H]3NCC[C@H]32)c2cc(C(F)(F)F)c(-c3ccc(F)c4sc(N)nc34)c(F)c2n1` [Compound 174], the values for the IC50 in assay [1] and in assay [3] were 1 to 10 µM and over 1 µM, respectively.
As for `CN1CCC[C@H]1COc1nc(NC2CCNCC2)c2cc(Cl)c(-c3ccc(F)c4sc(N)nc34)c(F)c2n1` [Compound 91], the IC50 in assay [1] and in assay [2] was 1 to 10 µM in each case.
Regarding `Nc1nc2c(-c3c(C(F)(F)F)cc4c(NC5CNC5)ncnc4c3F)ccc(F)c2s1` [Compound 88], the IC50 in assay [1] and in assay [2] was 10 to 30 µM in each case.
With `CN1C[C@H](OC(F)F)C[C@H]1COc1nc(NC2CNC2)c2cc(Cl)c(-c3ccc(F)c4sc(N)nc34)c(F)c2n1` [Compound 132], the IC50 in assay [1] and in assay [2] was 1 to 10 µM each time.
On to `CN(c1nc(OCC23CCCN2CCC3)nc2c(F)c(-c3ccc(F)c4sc(N)nc34)c(C(F)(F)F)cc12)C1CCNCC1` [Compound 280], for which the 50% inhibitory concentration (IC50) in assay [1] and in assay [2] was 1 to 10 µM throughout.
For `Nc1nc2c(-c3c(C(F)(F)F)cc4c(NC5CC6CC[C@H]5N6)nc(OCC56CCCN5CCC6)nc4c3F)ccc(F)c2s1` (stereo partly drawn) [Compound 265], the IC50 is 0.1 to 1 µM in assay [1] and 1 to 10 µM in assay [2].
For `Nc1nc2c(-c3c(OC(F)F)cc4c(N5CCNCC5)nc(OCC56CCCN5CCC6)nc4c3F)ccc(F)c2s1` [Compound 234, 4-(6-(difluoromethoxy)-8-fluoro-4-(piperazin-1-yl)-2-((tetrahydro-1H-pyrrolizin-7a(5H)-yl)methoxy)quinazolin-7-yl)-7-fluorobenzo[d]thiazol-2-amine], in that order: 1 to 10 µM and 1 to 10 µM.
Regarding `CN(c1nc(OCC23CCCN2CCC3)nc2c(F)c(-c3ccc(F)c4sc(N)nc34)c(C(F)(F)F)cc12)C1CC2CC[C@@H](C1)N2` (stereo partly drawn) [Compound 268], the IC50 in assay [1] and in assay [2] was 1 to 10 µM in each case.
For the molecule `CN1C[C@H](F)C[C@H]1COc1nc(N2CCNCC2)c2cc(-c3ccoc3)c(-c3ccc(F)c4sc(N)nc34)c(F)c2n1` [Compound 141], the IC50 in assay [1] and in assay [2] was 10 to 30 µM in each case.
With `CN1CCC[C@H]1COc1nc(N2CCN(C(=O)CN)CC2)c2cc(-c3ccoc3)c(-c3ccc(F)c4sc(N)nc34)c(F)c2n1` [Compound 144, 2-amino-1-(4-(7-(2-amino-7-fluorobenzo[d]thiazol-4-yl)-8-fluoro-6-(furan-3-yl)-2-(((S)-1-methylpyrrolidin-2-yl)methoxy)quinazolin-4-yl)piperazin-1-yl)ethan-1-one], the IC50 in assay [1] and in assay [2] was 10 to 30 µM in each case.
On to `CN1CC(C)(C)C[C@H]1COc1nc(N2CC3CCC(C2)N3)c2cc(C(F)(F)F)c(-c3ccc(F)c4sc(N)nc34)c(F)c2n1` [Compound 253], for which the IC50 in assay [1] and in assay [2] was 1 to 10 µM in each case.
For `NC(=O)N1CCN(c2nc(OCC34CCCN3CCC4)nc3c(F)c(-c4ccc(F)c5sc(N)nc45)c(-c4ccoc4)cc23)CC1` [Compound 186], the IC50 in assay [1] and in assay [2] was 10 to 30 µM each time.
On to `CN1CCC(c2nc(NCCN)c3cc(Cl)c(-c4ccc(F)c5sc(N)nc45)c(F)c3n2)CC1` [Compound 103], for which the IC50 in assay [1] and in assay [2] was 10 to 30 µM in each case.
In the case of `NC(=O)N1C2CCC1CN(c1nc(OC[C@@]34CCCN3C[C@H](F)C4)nc3c(F)c(-c4ccc(F)c5sc(N)nc45)c(C(F)(F)F)cc13)C2` [Compound 273], the IC50 in assay [1] and in assay [2] was 1 to 10 µM throughout.
`Nc1nc2c(-c3c(C(F)(F)F)cc4c(N5CCNCC5)nc(OC[C@@]56CCCN5C[C@H](F)C6)nc4c3F)ccc(F)c2s1` [Compound 206]: the figures for the IC50 in assay [1] and in assay [2] were 0.1 to 1 µM and 1 to 10 µM, respectively.
For `C[C@@H]1CN(c2nc(OC[C@@]34CCCN3C[C@H](F)C4)nc3c(F)c(-c4ccc(F)c5sc(N)nc45)c(C(F)(F)F)cc23)CCN1` [Compound 212], in that order: 0.1 to 1 µM and 1 to 10 µM.
`Nc1nc2c(-c3c(OC(F)(F)F)cc4c(N5CC6CC5CN6)nc(OC[C@@]56CCCN5C[C@H](F)C6)nc4c3F)ccc(F)c2s1` (stereo partly drawn) [Compound 240]: the IC50 in assay [1] and in assay [2] was 1 to 10 µM throughout.
For `CN(c1nc(OCC23CCCN2CCC3)nc2c(F)c(-c3ccc(F)c4sc(N)nc34)c(C(F)(F)F)cc12)[C@@H]1CCN(C(N)=O)C1` (atropisomer, axis not shown) [Compound 279], the IC50 in assay [1] lay in the range of 10 to 30 µM; in assay [2] it was 1 to 10 µM.
On to `CN1CCC[C@H]1COc1nc(N[C@H]2C[C@H](N)C2)c2cc(Cl)c(-c3ccc(F)c4sc(N)nc34)c(F)c2n1` (atropisomer, axis not shown) [Compound 83], for which the IC50 in assay [1] and in assay [2] was 1 to 10 µM throughout.
`CN1CCC[C@H]1COc1nc(NCCN)c2cnc(-c3ccc(F)c4sc(N)nc34)c(F)c2n1` [Compound 81]: the IC50 in assay [1] and in assay [2] was 10 to 30 µM in each case.
For the molecule `CN(c1nc(OC[C@@H]2CCCN2CCF)nc2c(F)c(-c3ccc(F)c4sc(N)nc34)c(C(F)(F)F)cc12)C1CNC1` [Compound 166], the IC50 in assay [1] and in assay [2] was 10 to 30 µM each time.
Turning to `CN1CCC[C@H]1COc1nc(NCCN)c2cc(Cl)c(-c3ccc4nc(N)sc4c3)c(F)c2n1` [Compound 109], the IC50 in assay [1] and in assay [2] was 10 to 30 µM in each case.
For the molecule `CN1C[C@H](F)C[C@H]1COc1nc(NC2CNC2)c2cc(-c3ccoc3)c(-c3ccc(F)c4sc(N)nc34)c(F)c2n1` [Compound 135], the IC50 in assay [1] and in assay [2] was 1 to 10 µM in each case.
Take `CN1CC(F)(F)C[C@H]1COc1nc(N2CCNCC2)c2cc(C(F)(F)F)c(-c3ccc(F)c4sc(N)nc34)c(F)c2n1` [Compound 160]: the IC50 in assay [1] and in assay [2] was 10 to 30 µM in each case.
For the molecule `C[C@@H]1CN(c2nc(OC[C@]34CCCN3C[C@H](F)C4)nc3c(F)c(-c4ccc(F)c5sc(N)nc45)c(C(F)(F)F)cc23)C[C@H](C)N1` [Compound 215], the IC50 in assay [1] lay within 1 to 10 µM; in assay [2] it was 10 to 30 µM.
For `CN(c1nc(OCC23CCCN2CCC3)nc2c(F)c(-c3ccc(F)c4sc(N)nc34)c(-c3ccoc3)cc12)C1CN(C(N)=O)C1` [Compound 151], in that order: 1 to 10 µM and 10 to 30 µM.
Consider `CN1CCC[C@H]1COc1nc(NCCN)c2cc(Cl)c(-c3cccc4nc(N)n(C)c34)c(F)c2n1` [Compound 86], for which the 50% inhibitory concentration (IC50) in assay [1] and in assay [2] was 10 to 30 µM in each case.
